Experimental data reported in patent publication US12194011B2, “Compositions comprising theanine, magnolia, and phellodendron” (Nutramax Laboratories, Inc., priority 2015, dated 2025).

Key:
Wistar rats [1] = assay: Open-field activity as a measure of sedation; type: in vivo; conditions: PO daily for 14 days, vehicle 9062 ± 597
Protocol: (§1) Wistar rats (16 per group) were dosed either with individual components (L-theanine, magnolia/phellodendron, and milk whey protein) or several combinations of the three, including the three-way combination (theanine+magnolia/phellodendron+milk whey protein). Magnolia/phellodendron combination was provided as a commercially available preparation (RELORA; InterHealth Nutraceuticals, Inc., Benicia, CA). Administered milk whey protein was standardized to 80% alpha-lactalbumin. The rats were dosed daily for 14 days, and then a series of behavioral assays were performed to detect any anxiolytic effects on the rats or sedative effects. The treatment groups were as follows: • 1: L-theanine+magnolia/phellodendron • 2: L-theanine+Milk Whey Protein • 3: magnolia/phellodendron+Milk Whey Protein • 4: L-theanine+magnolia/phellodendron+Milk Whey Protein • 5: L-theanine • 6: magnolia/phellodendron • 7: Milk Whey Protein
Locomotor activity in an open field test is a good measure of the sedative properties of a compound. As one example, a noted side-effect of many anxiolytic compounds such as benzodiazepines is marked sedation in conjunction with administration. […]
This test is performed by placing a rat in an open, brightly lit enclosure. The rats are videotaped, and the total distance the rat travels during the testing period is recorded as an indicator of locomotor activity. […]

glutamate = assay: Acute glutamate output in hippocampal microdialysate after the 7th daily dose; type: in vivo, C57BI mice; conditions: after 7th daily dose, % of basal output
Protocol: (§2) Neurotransmitter release patterns in the brain were measured by a procedure which involved inserting a probe into the […] region (microdialysis probe) of a laboratory animal and flushing the probe via dialysis with an artificial cerebrospinal fluid (CSF). This is an accepted and common method used to obtain and measure in vivo brain levels of neurotransmitters and other small […].
(§3) The fluid being collected represents the extracellular or interstitial fluid found in the hippocampal region of the brain. This area is usually the preferred and typical area for microdialysis analysis because any changes measured in this area of the brain are believed to correspond with approximately 80% of whole brain tissue. […]
(§4) For the evaluation, male C57BI mice were divided into groups (6 per group) and administered a variety of compounds or a placebo orally for seven days. […] Each aliquot was then analyzed to determine the amount of GABA, glutamate, and serotonin (5-HT) in each sample. […]
(§5) First, basal output levels of each neurotransmitter were measured to determine any long-term, chronic effects of each compound on the neurotransmitters. […] These levels were determined by averaging the levels of each neurotransmitter in the three, 30-minute aliquots prior to the administration of the 7th daily dose (Sample −90 min to −60, Sample −60 minutes to −30, and Sample −30 minutes to time 0). […]

GABA = assay: Acute GABA output in hippocampal microdialysate after the 7th daily dose; type: in vivo, C57BI mice; conditions: up to 210 minutes after 7th daily dose, % of basal output, ANOVA p<0.05
Protocol: as §2, §3, §4, §5

Wistar rats [2] = assay: Elevated plus-maze (EPM) test; type: in vivo; conditions: PO daily for 14 days, 16 per group, vehicle 10 ± 2
Protocol: as §1
The elevated plus-maze (EPM) capitalizes on the natural aversion (trait anxiety) of rodents on brightly lit, open, and elevated areas. The EPM has very strong predictive ability and is often used to profile the potential anxiolytic activity of compounds. During this test, the rats are videotaped after being placed in the elevated maze. The videos are analyzed to determine the % of time the rats stay in the open, elevated portions of the maze. […]

serotonin (5-HT) = assay: Basal serotonin (5-HT) output in hippocampal microdialysate after 6 daily oral doses; type: in vivo; conditions: male C57BI mice, basal level before 7th dose, hippocampal dialysate, student's t-test p<0.05
Protocol: as §2, §3, §4, §5

CCNC(=O)CC[C@H](N)C(=O)O [Compound A, L-theanine]
Mean Distance (cm) ± SEM (Wistar rats [1]): 9971 ± 652 cm
immediate treatment effect on glutamate levels (glutamate): neither the individual components (A, B, C) nor the combination (A+B+C) had an immediate treatment effect
acute treatment effect on GABA vs placebo (ANOVA) (GABA): no statistically significant treatment effects
Mean % Time in open arms ± SEM (Wistar rats [2]): 13 ± 2%
effect on basal output of serotonin (5-HT) vs placebo (serotonin (5-HT)): none of L-theanine, Relora, nor milk whey protein had any significant effect
